Test results as given in PubChem BioAssay (NCI).
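Abbreviation: GI50, concentration required for 50% inhibition of growth. TGI marks complete inhibition of growth.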

What was measured:
Test in all cases: growth of human tumour cells (NCI), 384-well format
[1] = tested on: K-562 leukemia
[2] = tested on: MOLT-4 leukemia
[3] = tested on: T-47D breast
[4] = tested on: HT29 colon
[5] = tested on: OVCAR-3 ovarian
[6] = tested on: DU-145 prostate
[7] = tested on: CAKI-1 renal
[8] = tested on: RXF 393 renal
[9] = tested on: SF-539 CNS
[10] = tested on: A549 NSCLC
[11] = tested on: MDA-MB-468 breast
[12] = tested on: COLO 205 colon
[13] = tested on: M14 melanoma
[14] = tested on: CCRF-CEM leukemia
[15] = tested on: 786-0 renal
[16] = tested on: MDA-MB-231 breast
[17] = tested on: MALME-3M melanoma
[18] = tested on: PC-3 prostate
[19] = tested on: TK-10 renal
[20] = tested on: SNB-19 CNS
[21] = tested on: NCI-H23 lung
[22] = tested on: NCI-H522 lung
[23] = tested on: OVCAR-5 ovarian
[24] = tested on: OVCAR-4 ovarian
[25] = tested on: SW-620 colon
[26] = tested on: NCI-H322M lung
[27] = tested on: MCF7 breast
[28] = tested on: U251 glioblastoma
[29] = tested on: HOP-92 NSCLC
[30] = tested on: SF-268 CNS
[31] = tested on: RPMI-8226 leukemia
[32] = tested on: SF-295 CNS
[33] = tested on: SN12C renal
[34] = tested on: OVCAR-8 ovarian
[35] = tested on: SK-OV-3 ovarian
[36] = tested on: SK-MEL-2 melanoma
[37] = tested on: ACHN renal
[38] = tested on: SK-MEL-5 melanoma
[39] = tested on: HL-60(TB) leukemia
[40] = tested on: UO-31 renal
[41] = tested on: UACC-257 melanoma
[42] = tested on: NCI-H460 NSCLC
[43] = tested on: A498 renal
[44] = tested on: SK-MEL-28 melanoma
[45] = tested on: SR leukemia
[46] = tested on: NCI-H226 lung
[47] = tested on: HOP-62 NSCLC
[48] = tested on: UACC-62 melanoma
[49] = tested on: BT-549 breast
[50] = tested on: HCT-15 colon
[51] = tested on: KM12 colon
[52] = tested on: HCT-116 colon
[53] = tested on: MDA-MB-435 melanoma
[54] = tested on: IGROV1 ovarian
[55] = tested on: LOX IMVI melanoma
[56] = tested on: NCI/ADR-RES ovarian
[57] = tested on: HCC-2998 colon
[58] = tested on: SNB-75 CNS
[59] = tested on: HS 578T breast
[60] = tested on: EKVX NSCLC

Cc1c(C)n(CCCN2CCN(C)CC2)c2ccc(Oc3cccc(C(=O)N4CCN(CCc5ccc(F)cc5)CC4)c3)cc12
GI50 [1]: 1430 nM | TGI [1]: 2760 nM | GI50 [2]: 1810 nM | TGI [2]: 3200 nM | GI50 [3]: 1490 nM | TGI [3]: 2820 nM | GI50 [4]: 1450 nM | TGI [4]: 2800 nM | GI50 [5]: 1610 nM | TGI [5]: 2970 nM | GI50 [6]: 1730 nM | TGI [6]: 3130 nM | GI50 [7]: 1510 nM | TGI [7]: 2850 nM | GI50 [8]: 1420 nM | TGI [8]: 2730 nM | GI50 [9]: 1610 nM | TGI [9]: 2980 nM | GI50 [10]: 1600 nM | TGI [10]: 2980 nM | GI50 [11]: 1390 nM | TGI [11]: 2690 nM | GI50 [12]: 1680 nM | TGI [12]: 3070 nM | GI50 [13]: 1600 nM | TGI [13]: 2960 nM | GI50 [14]: 1630 nM | TGI [14]: 2990 nM | GI50 [15]: 1520 nM | TGI [15]: 2870 nM | GI50 [16]: 1910 nM | TGI [16]: 3320 nM | GI50 [17]: 1410 nM | TGI [17]: 2710 nM | GI50 [18]: 1650 nM | TGI [18]: 3020 nM | GI50 [19]: 1590 nM | TGI [19]: 2940 nM | GI50 [20]: 1710 nM | TGI [20]: 3100 nM | GI50 [21]: 1500 nM | TGI [21]: 2830 nM | GI50 [22]: 1680 nM | TGI [22]: 3050 nM | GI50 [23]: 1660 nM | TGI [23]: 3030 nM | GI50 [24]: 1750 nM | TGI [24]: 3130 nM | GI50 [25]: 1770 nM | TGI [25]: 3190 nM | GI50 [26]: 1640 nM | TGI [26]: 3010 nM | GI50 [27]: 1720 nM | TGI [27]: 3110 nM | GI50 [28]: 1700 nM | TGI [28]: 3100 nM | GI50 [29]: 1430 nM | TGI [29]: 2740 nM | GI50 [30]: 1780 nM | TGI [30]: 3180 nM | GI50 [31]: 1300 nM | TGI [31]: 2560 nM | GI50 [32]: 1800 nM | TGI [32]: 3200 nM | GI50 [33]: 1630 nM | TGI [33]: 2990 nM | GI50 [34]: 1620 nM | TGI [34]: 3000 nM | GI50 [35]: 1520 nM | TGI [35]: 2860 nM | GI50 [36]: 1760 nM | TGI [36]: 3140 nM | GI50 [37]: 1610 nM | TGI [37]: 2980 nM | GI50 [38]: 1280 nM | TGI [38]: 2550 nM | GI50 [39]: 2030 nM | TGI [39]: 3460 nM | GI50 [40]: 1610 nM | TGI [40]: 2970 nM | GI50 [41]: 889 nM | TGI [41]: 2100 nM | GI50 [42]: 1850 nM | TGI [42]: 3320 nM | GI50 [43]: 1520 nM | TGI [43]: 2860 nM | GI50 [44]: 1680 nM | TGI [44]: 3060 nM | GI50 [45]: 1460 nM | TGI [45]: 2790 nM | GI50 [46]: 1590 nM | TGI [46]: 2940 nM | GI50 [47]: 1630 nM | TGI [47]: 3000 nM | GI50 [48]: 1780 nM | TGI [48]: 3170 nM | GI50 [49]: 1320 nM | TGI [49]: 2600 nM | GI50 [50]: 1430 nM | TGI [50]: 2750 nM | GI50 [51]: 1720 nM | TGI [51]: 3120 nM | GI50 [52]: 1470 nM | TGI [52]: 2800 nM | GI50 [53]: 1720 nM | TGI [53]: 3110 nM | GI50 [54]: 1580 nM | TGI [54]: 2940 nM | GI50 [55]: 2090 nM | TGI [55]: 3540 nM | GI50 [56]: 1570 nM | TGI [56]: 2920 nM | GI50 [57]: 1430 nM | TGI [57]: 2740 nM

NS(=O)(=O)OC[C@H]1C[C@@H](Nc2ccnc3cc(-c4cccc(SC(F)(F)F)c4)nn23)[C@H](O)[C@@H]1O
GI50 [1]: < 10 nM | TGI [1]: < 10 nM | GI50 [2]: 12.9 nM | TGI [2]: 26 nM | GI50 [3]: < 10 nM | TGI [3]: 12.4 nM | GI50 [4]: 94.7 nM | TGI [4]: 222 nM | GI50 [5]: < 10 nM | TGI [5]: < 10 nM | GI50 [6]: < 10 nM | TGI [6]: 44.9 nM | GI50 [7]: 18.9 nM | TGI [7]: 36 nM | GI50 [8]: < 10 nM | TGI [8]: 18.4 nM | GI50 [9]: < 10 nM | TGI [9]: < 10 nM | GI50 [10]: 59.6 nM | TGI [10]: 191 nM | GI50 [11]: < 10 nM | TGI [11]: < 10 nM | GI50 [12]: < 10 nM | TGI [12]: 14.9 nM | GI50 [13]: 15.8 nM | TGI [13]: 30.7 nM | GI50 [14]: < 10 nM | TGI [14]: < 10 nM | GI50 [15]: 18.7 nM | TGI [15]: 36.1 nM | GI50 [16]: < 10 nM | TGI [16]: 23.4 nM | GI50 [17]: < 10 nM | TGI [17]: 21.5 nM | GI50 [18]: 17.5 nM | TGI [18]: 32.4 nM | GI50 [19]: 27.3 nM | TGI [19]: 85.3 nM | GI50 [58]: 19 nM | TGI [58]: 34.4 nM | GI50 [20]: < 10 nM | TGI [20]: 20.7 nM | GI50 [21]: 19.3 nM | TGI [21]: 51.3 nM | GI50 [22]: < 10 nM | TGI [22]: < 10 nM | GI50 [23]: 12.8 nM | TGI [23]: 34.2 nM | GI50 [24]: 15.9 nM | TGI [24]: 29.9 nM | GI50 [25]: 14.4 nM | TGI [25]: 27.8 nM | GI50 [26]: 11.3 nM | TGI [26]: 24.2 nM | GI50 [27]: 11.5 nM | TGI [27]: 31.2 nM | GI50 [28]: < 10 nM | TGI [28]: < 10 nM | GI50 [29]: 12.2 nM | TGI [29]: 25.4 nM | GI50 [30]: < 10 nM | TGI [30]: < 10 nM | GI50 [31]: 202 nM | TGI [31]: 348 nM | GI50 [32]: 48.1 nM | TGI [32]: 166 nM | GI50 [33]: 21.4 nM | TGI [33]: 43.7 nM | GI50 [34]: < 10 nM | TGI [34]: 16.5 nM | GI50 [35]: 12.8 nM | TGI [35]: 25.9 nM | GI50 [37]: 59 nM | TGI [37]: 190 nM | GI50 [38]: < 10 nM | TGI [38]: < 10 nM | GI50 [39]: < 10 nM | TGI [39]: < 10 nM | GI50 [40]: 20.5 nM | TGI [40]: 42.1 nM | GI50 [41]: 14.7 nM | TGI [41]: 28.6 nM | GI50 [42]: 147 nM | TGI [42]: 286 nM | GI50 [43]: < 10 nM | TGI [43]: 21.2 nM | GI50 [44]: < 10 nM | TGI [44]: < 10 nM | GI50 [59]: 14.2 nM | TGI [59]: 28.4 nM | GI50 [46]: < 10 nM | TGI [46]: < 10 nM | GI50 [47]: < 10 nM | TGI [47]: 11.4 nM | GI50 [48]: 17 nM | TGI [48]: 32.2 nM | GI50 [49]: < 10 nM | TGI [49]: 16.1 nM | GI50 [60]: 14 nM | TGI [60]: 28 nM | GI50 [50]: 33.2 nM | TGI [50]: 117 nM | GI50 [51]: 25.5 nM | TGI [51]: 59.7 nM | GI50 [52]: < 10 nM | TGI [52]: 11.3 nM | GI50 [53]: 17.4 nM | TGI [53]: 32.7 nM | GI50 [54]: 15.1 nM | TGI [54]: 30.1 nM | GI50 [55]: < 10 nM | TGI [55]: < 10 nM | GI50 [56]: 129 nM | TGI [56]: 260 nM | GI50 [57]: 13.1 nM | TGI [57]: 27.4 nM
